According to patent US11986452B2, “Methods of reducing the risk of heart failure” (Amarin Pharmaceuticals Ireland Limited, priority 2021, dated 2024):

Assays:
[1] = test system: statin-treated patients in the icosapent ethyl group; assay: Example 5: new heart failure by on-treatment EPA tertile (post hoc); assay type: in vivo, human; conditions: for New heart failure requiring hospitalization: HR vs lowest on treatment EPA tertile / New heart failure: HR vs lowest on treatment EPA tertile: post hoc, icosapent ethyl group only
Excerpt: The mechanical or surgical intervention including mechanical circulatory support (e.g., intra-aortic balloon pump, ventricular assist device) and/or mechanical fluid removal (e.g., ultrafiltration, hemofiltration, dialysis).
New Heart Failure/Heart Failure Not Requiring Hospitalization: is defined as an event that meets all of the following: the patient has an urgent, unscheduled office/practice or emergency department visit for a primary diagnosis of HF, but not meeting the criteria for a HF hospitalization; all signs and symptoms for HF hospitalization must be met as defined in A Heart Failure Hospitalization above; and the patient receives initiation or intensification of treatment specifically for HF, as detailed in the above section with the exception of oral diuretic therapy, which was not sufficient.
The study design was the same as that described above in Example 1 related to the REDUCE-IT clinical trial.
Prespecified tertiary endpoints of NHF (HR=0.95; 95% CI, 0.77-1.17; p=0.63) and NHF requiring hospitalization (HR=0.97; 0.77-1.22; p=0.78) from the REDUCE-IT clinical trial were not significant.

[2] = test system: statin-treated patients with elevated triglycerides; assay: Example 3: total (first and subsequent) ischemic events analysis (negative binomial, modified Wei-Lin-Weissfeld, Andersen-Gill, joint frailty); assay type: in vivo, human; conditions: for Adjusted HR, total events / Unadjusted HR, total events / Adjusted HR, first event / Adjusted HR, second event / Adjusted HR, third event / Unadjusted HR, first event / Unadjusted HR, second event / Unadjusted HR, third event / Adjusted RR, total events / Unadjusted RR, total events / HR, Cardiovascular Death / HR, Non-fatal Cardiovascular Event: vs placebo; for Adjusted HR, first event / Adjusted HR, second event / Adjusted HR, third event / Unadjusted HR, first event / Unadjusted HR, second event / Unadjusted HR, third event: modified WLW; for HR, Cardiovascular Death / HR, Non-fatal Cardiovascular Event: joint frailty model; for Fatal events, %: after reduction
Excerpt: The following study was a multi-center, placebo-controlled clinical trial the details of which are described above in Example 1, the REDUCE-IT design. […] The main outcomes were total primary composite endpoint events defined as cardiovascular death, nonfatal myocardial infarction, nonfatal stroke, coronary revascularization, or hospitalization for unstable angina and total key secondary composite endpoint events defined as cardiovascular death, nonfatal myocardial infarction, or nonfatal stroke. In the context of this study, total events refer to any first event as well as any subsequent event. Differences in total events were determined using other statistical models, including Andersen-Gill, Wei-Lin-Weissfeld (Li and Lagakos), both pre-specified, and a post hoc and joint-frailty analysis.
For the present prespecified analysis, the primary outcome was the total of first plus subsequent ischemic events consisting of the composite of cardiovascular death, nonfatal myocardial infarction, nonfatal stroke, coronary revascularization, or hospitalization for unstable angina. […] Exploratory analyses of the total of first and subsequent events were also performed for the key secondary composite endpoint.
Baseline characteristics were compared between treatment groups using the chi-squared test for categorical variables and the Wilcoxon rank sum test for continuous variables. There are several methods for analyzing first and subsequent (recurrent) event data. As a pre-specified statistical method, a negative binomial regression was used to calculate rates and rate ratios for total cardiovascular events, which accounts for the variability in each patient's risk of events. As pre-specified supportive analyses, the modified Wei-Lin-Weissfeld method (Li and Lagakos modification) was used to calculate hazard ratios (HRs) for the time to the first event, second event, or third event. An additional pre-specified analysis, the Andersen-Gill model using a Cox proportional-hazard with the counting-process formulation was performed to model the total events. In addition, in order to account for informative censoring due to cardiovascular death, the HR for total non-fatal events was calculated using a joint frailty model (See Rondeau V. Joint frailty models for recurring events and death using maximum penalized likelihood estimation: application on cancer events. Biostatistics. 2007; 8:708-21). The joint frailty model simultaneously estimates hazard functions for non-fatal and fatal CV events and takes into account the fact that patients who are prone to have nonfatal events have an elevated risk of a cardiovascular death. The application of the joint frailty model used a gamma distribution for the frailty term.
Statistical analyses using the full adjudicated endpoint events dataset without exclusions using this bundling approach were also determined.

[3] = key secondary composite endpoint, Andersen-Gill (I), full dataset
[4] = key secondary composite endpoint, Andersen-Gill (I), reduced dataset
[5] = key secondary composite endpoint, Andersen-Gill (II), full dataset
[6] = key secondary composite endpoint, Andersen-Gill (II), reduced dataset
[7] = key secondary composite endpoint, full dataset
[8] = key secondary composite endpoint, reduced dataset
[9] = key secondary composite endpoint, negative binomial, full dataset
[10] = key secondary composite endpoint, negative binomial, reduced dataset
[11] = key secondary endpoint, adjusted, reduced dataset
[12] = key secondary endpoint, unadjusted, reduced dataset
[13] = primary composite endpoint, Andersen-Gill (I), full dataset
[14] = primary composite endpoint, Andersen-Gill (I), reduced dataset
[15] = primary composite endpoint, Andersen-Gill (II), full dataset
[16] = primary composite endpoint, Andersen-Gill (II), reduced dataset
[17] = primary composite endpoint, full dataset
[18] = primary composite endpoint, reduced dataset
[19] = primary composite endpoint, negative binomial, full dataset
[20] = primary composite endpoint, negative binomial, reduced dataset
[21] = primary endpoint, adjusted, reduced dataset
[22] = primary endpoint, unadjusted, reduced dataset

## CC/C=C\C/C=C\C/C=C\C/C=C\C/C=C\CCCC(=O)OCC [icosapent ethyl, eicosapentaenoic acid ethyl ester]
[1]; EPA tertile analyses within icosapent ethyl group
  Achieved EPA level with statistically and clinically meaningful risk reductions in NHF: above 104 μg/mL
[1]; middle EPA tertile
  New heart failure requiring hospitalization: HR vs lowest on treatment EPA tertile: 0.47
  New heart failure: HR vs lowest on treatment EPA tertile: 0.55
[1]; upper EPA tertile
  New heart failure requiring hospitalization: HR vs lowest on treatment EPA tertile: 0.45
  New heart failure: HR vs lowest on treatment EPA tertile: 0.41
[2]; in vivo
  Total (first and subsequent) ischemic events for the primary composite endpoint: relative risk reduction: 30%
[2]; [3]
  Adjusted HR, total events: 0.71
  Unadjusted HR, total events: 0.71
[2]; [4]
  Adjusted HR, total events: 0.72
  Unadjusted HR, total events: 0.72
[2]; [5]
  Adjusted HR, total events: 0.71
  Unadjusted HR, total events: 0.71
[2]; [6]
  Adjusted HR, total events: 0.72
  Unadjusted HR, total events: 0.72
[2]; [7]
  Adjusted HR, first event: 0.74
  Adjusted HR, second event: 0.75
  Adjusted HR, third event: 0.79
  Unadjusted HR, first event: 0.74
  Unadjusted HR, second event: 0.75
  Unadjusted HR, third event: 0.79
[2]; [8]
  Adjusted HR, first event: 0.74
  Adjusted HR, second event: 0.75
  Adjusted HR, third event: 0.79
  Unadjusted HR, first event: 0.74
  Unadjusted HR, second event: 0.75
  Unadjusted HR, third event: 0.79
[2]; [9]
  Adjusted RR, total events: 0.71
  Unadjusted RR, total events: 0.71
[2]; [10]
  Adjusted RR, total events: 0.72
  Unadjusted RR, total events: 0.71
[2]; [11]
  HR, Cardiovascular Death: 0.79
  HR, Non-fatal Cardiovascular Event: 0.68
[2]; key secondary endpoint
  Fatal events, %: 45.0%
[2]; key secondary endpoint, share of overall events
  Total events before reduction, %: 42.0%
[2]; [12]
  HR, Cardiovascular Death: 0.79
  HR, Non-fatal Cardiovascular Event: 0.68
[2]; negative binomial
  Total key secondary endpoint events: RR vs placebo: 0.72
[2]; [13]
  Adjusted HR, total events: 0.68
  Unadjusted HR, total events: 0.68
[2]; [14]
  Adjusted HR, total events: 0.69
  Unadjusted HR, total events: 0.69
[2]; [15]
  Adjusted HR, total events: 0.68
  Unadjusted HR, total events: 0.68
[2]; [16]
  Adjusted HR, total events: 0.69
  Unadjusted HR, total events: 0.69
[2]; [17]
  Adjusted HR, first event: 0.75
  Adjusted HR, second event: 0.68
  Adjusted HR, third event: 0.70
  Unadjusted HR, first event: 0.76
  Unadjusted HR, second event: 0.69
  Unadjusted HR, third event: 0.70
[2]; [18]
  Adjusted HR, first event: 0.75
  Adjusted HR, second event: 0.68
  Adjusted HR, third event: 0.69
  Unadjusted HR, first event: 0.76
  Unadjusted HR, second event: 0.69
  Unadjusted HR, third event: 0.69
[2]; [19]
  Adjusted RR, total events: 0.69
  Unadjusted RR, total events: 0.67
[2]; [20]
  Adjusted RR, total events: 0.70
  Unadjusted RR, total events: 0.68
[2]; [21]
  HR, Cardiovascular Death: 0.80
  HR, Non-fatal Cardiovascular Event: 0.67
[2]; primary endpoint
  Fatal events, %: 45.0%
[2]; primary endpoint, multiple endpoints in a single calendar day handled as a single event
  Total events after reduction, %: 41.0%
[2]; [22]
  HR, Cardiovascular Death: 0.80
  HR, Non-fatal Cardiovascular Event: 0.66
